Experimental data from ChEMBL document CHEMBL1134422, “Synthesis and bioactivities of novel 5,6-bis(4-methoxyphenyl)-2H-pyridazin-3-one derivatives: inhibitors of interleukin-1 beta (IL-1beta) production” (Bioorg Med Chem Lett, 2001).

How the values were obtained:
HL-60 = test: Inhibitory concentration against interleukin-1 beta production in HL-60 cells stimulated with lipopolysaccharide (LPS).; assay type: functional, cell-based; conditions: Homo sapiens
[1] = Pharmacokinetic property (Cmax) in rat; assay type: ADME, organism-based; conditions: in vivo
[2] = Pharmacokinetic property (t1/2) in rat; assay type: ADME, organism-based; conditions: in vivo
Rattus norvegicus = species: Rattus norvegicus; test: Pharmacokinetic property (AUC) in rat; assay type: ADME, organism-based; conditions: in vivo
[3] = Pharmacokinetic property (Tmax) in rat; assay type: ADME, organism-based; conditions: in vivo

| Compound | IC50 (HL-60) [nM] | also measured |
| --- | --- | --- |
| COc1ccc(-c2cc(=O)n(C3CC3)nc2-c2ccc(OC)cc2)cc1 | 7980 |  |
| COc1ccc(-c2cc(=O)n(Cc3c(Cl)cc(Cl)cc3Cl)nc2-c2ccc(OC)cc2)cc1 | 9400 |  |
| COc1ccc(-c2cc(=O)n(C(C)C)nc2-c2ccc(OC)cc2)cc1 | 1320 |  |
| COc1ccc(-c2cc(=O)n(Cc3ccc(F)cc3)nc2-c2ccc(OC)cc2)cc1 | 150 |  |
| COc1ccc(-c2cc(=O)n(C/C=C/c3ccc(Cl)cc3)nc2-c2ccc(OC)cc2)cc1 | 100 | Cmax [1]: 316 ng/mL; half-life [2]: 4.9 h; AUC (Rattus norvegicus): 3900 ng·h/mL; Tmax [3]: 7 h |
| COc1ccc(-c2cc(=O)n(CC3CC3)nc2-c2ccc(OC)cc2)cc1 | 1800 |  |
| COc1ccc(-c2cc(=O)n(Cc3ccccc3)nc2-c2ccc(OC)cc2)cc1 | 260 |  |
| COc1ccc(-c2cc(O)nnc2-c2ccc(OC)cc2)cc1 | 31600 |  |
| COc1ccc(-c2cc(=O)n(Cc3ccc(Cl)cc3)nc2-c2ccc(OC)cc2)cc1 | 530 |  |
| COc1ccc(-c2cc(=O)n(Cc3ccc(Cl)c(Cl)c3)nc2-c2ccc(OC)cc2)cc1 | 210 |  |
| COc1ccc(-c2cc(=O)n(Cc3c(Cl)cccc3Cl)nc2-c2ccc(OC)cc2)cc1 | 3160 |  |
| COc1ccc(-c2cc(=O)n(CC3CCCC3)nc2-c2ccc(OC)cc2)cc1 | 110 |  |
| CCn1nc(-c2ccc(OC)cc2)c(-c2ccc(OC)cc2)cc1=O | 610 |  |
| COc1ccc(-c2cc(=O)n(C3CCCC3)nc2-c2ccc(OC)cc2)cc1 | 510 |  |
| COc1ccc(-c2cc(=O)n(C)nc2-c2ccc(OC)cc2)cc1 | 1130 |  |
| COc1ccc(-c2cc(=O)n(Cc3ccc(Cl)cc3Cl)nc2-c2ccc(OC)cc2)cc1 | 1100 |  |

Now from value to compound, other results behind:

| IC50 (HL-60) [nM] | Compound | also measured |
| --- | --- | --- |
| 170 | COc1ccc(-c2cc(=O)n(C/C=C/c3ccc(F)cc3)nc2-c2ccc(OC)cc2)cc1 |  |
| 520 | COc1ccc(-c2cc(=O)n(Cc3ccncc3)nc2-c2ccc(OC)cc2)cc1 |  |
| 270 | COc1ccc(-c2cc(=O)n(C/C=C/c3ccc(Cl)cc3Cl)nc2-c2ccc(OC)cc2)cc1 |  |
| > 100000 | C=CCn1nc(-c2ccc(OC)cc2)c(-c2ccc(OC)cc2)cc1=O |  |
| 1480 | COc1ccc(-c2cc(=O)n(Cc3ccccn3)nc2-c2ccc(OC)cc2)cc1 |  |
| 100 | COc1ccc(-c2cc(=O)n(C/C=C/c3ccc(F)cc3F)nc2-c2ccc(OC)cc2)cc1 |  |
| > 100000 | COc1ccc(-c2cc(=O)n(CC(C)C)nc2-c2ccc(OC)cc2)cc1 |  |
| 180 | COc1ccc(-c2cc(=O)n(Cc3ccc(F)cc3F)nc2-c2ccc(OC)cc2)cc1 |  |
| 620 | COc1ccc(-c2cc(=O)n(C/C=C/c3ccccc3)nc2-c2ccc(OC)cc2)cc1 |  |
| 540 | COc1ccc(-c2cc(=O)n(Cc3ccc(F)c(F)c3)nc2-c2ccc(OC)cc2)cc1 |  |
| 430 | COc1ccc(-c2cc(=O)n(Cc3cccnc3)nc2-c2ccc(OC)cc2)cc1 |  |
